Test systems include U-251; KM12; M14; OVCAR-8; SNB-75; SR; OVCAR-3; HT-29; SK-MEL-28; NCI-H23; HOP-92; HL-60; T47D; SK-MEL-5; DU-145; SK-MEL-2; A498; SW-620; RXF 393; NCI-H226.
Experiment in all cases: NCI tumour cell line growth inhibition, 48 h

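48-hour exposure; five concentrations; linearly interpolated endpoints. GI50: concentration for 50% inhibition of growth.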 The source made the active and inactive calls. Rule as the data show it: active = GI50 up to about 1.1 µM and inactive = higher.

On to `COc1c(-c2ccc(F)cc2)oc2cc(O)cc(O)c2c1=O`, for which the GI50 in the assay with U-251 is 30.5 µM (inactive); in the assay on KM12, 30.5 µM (inactive); with M14, 34.8 µM (inactive); in the assay with OVCAR-8 it was 28.7 µM (inactive); in the assay with SNB-75, 19.2 µM (inactive); with SR, 28.2 µM (inactive). For the same compound, the GI50 is 34.1 µM (inactive) in the assay with OVCAR-3; 22.7 µM (inactive) in the assay with HT-29; 46.9 µM (inactive) in the assay on SK-MEL-28; 29.6 µM (inactive) in the assay with NCI-H23; 35.6 µM (inactive) in the assay with HOP-92; 30.9 µM (inactive) in the assay on HL-60. Moreover, the GI50 in the assay on T47D is 18.8 µM (inactive); in the assay with SK-MEL-5, 16.5 µM (inactive); with DU-145, 29 µM (inactive); in the assay on SK-MEL-2, 23.3 µM (inactive); with A498 it was 47.6 µM (inactive); with SW-620, 43 µM (inactive).
Consider `CC(=O)OCC1OC(n2c(C)c(/N=N/c3ccc(C)cc3)c(C)c(C#N)c2=S)C(OC(C)=O)C(OC(C)=O)C1OC(C)=O` (centres undefined), for which the GI50 is > 100 µM (inactive) with U-251; > 100 µM (inactive) with KM12; 48.6 µM (inactive) in the assay with M14; 60.4 µM (inactive) in the assay with SNB-75; > 100 µM (inactive) in the assay on SR; > 100 µM (inactive) in the assay with OVCAR-3. Besides, the GI50 in the assay with HT-29 is > 100 µM (inactive); in the assay on SK-MEL-28, > 100 µM (inactive); in the assay with NCI-H23, > 100 µM (inactive); in the assay on HOP-92, 0.895 µM (active); in the assay on HL-60 it was > 100 µM (inactive); in the assay with RXF 393, > 100 µM (inactive). Besides, the GI50 in the assay with T47D is > 100 µM (inactive); in the assay on SK-MEL-5, 43.2 µM (inactive); in the assay with DU-145, > 100 µM (inactive); in the assay with SW-620, > 100 µM (inactive).
In the case of `COC(=O)C1(Cc2ccccc2)Cc2ccccc2C1O` (centres undefined), the GI50 in the assay on U-251 is > 100 µM (inactive); in the assay on KM12 it was > 100 µM (inactive); in the assay with OVCAR-8 it was > 100 µM (inactive); in the assay on SNB-75, 87.7 µM (inactive); in the assay on SR, 92.9 µM (inactive); in the assay on OVCAR-3, > 100 µM (inactive). The GI50 in the assay with HT-29 is > 100 µM (inactive); in the assay with SK-MEL-28, > 100 µM (inactive); in the assay with NCI-H23, 63 µM (inactive); in the assay with HL-60 it was > 100 µM (inactive); in the assay with RXF 393 it was 50.2 µM (inactive); with T47D, 43.3 µM (inactive). The GI50 in the assay with NCI-H226 is > 100 µM (inactive); in the assay with SK-MEL-5 it was 37.3 µM (inactive); in the assay with DU-145, > 100 µM (inactive); in the assay on A498, > 100 µM (inactive); with SW-620, > 100 µM (inactive).
For the compound `COc1ccc(/N=N/C(=N/NC(=O)c2ccccc2)c2ccc(N(CCC#N)CCC#N)cc2C)cc1`, the GI50 in the assay with U-251 is 60.5 µM (inactive); in the assay with KM12, 11.6 µM (inactive); with M14, 50.5 µM (inactive); in the assay on OVCAR-8, 51.8 µM (inactive); in the assay with SNB-75, 43 µM (inactive); with SR it was 6.19 µM (inactive). The GI50 in the assay with OVCAR-3 was 17.7 µM (inactive); in the assay on HT-29, 17.9 µM (inactive); in the assay with NCI-H23, 25.5 µM (inactive); with HL-60 it was 32.6 µM (inactive); in the assay with RXF 393 it was 34.8 µM (inactive); with T47D it was 53.7 µM (inactive). Also, the GI50 in the assay with NCI-H226 was 43.8 µM (inactive); with SK-MEL-5 it was 18.2 µM (inactive); with DU-145, 81.3 µM (inactive); with SK-MEL-2, 88.5 µM (inactive); in the assay with A498 it was 25.6 µM (inactive).
For `COc1cc2c(cc1C)NC(=O)/C2=C\c1ccncc1`, the GI50 is 4.39 µM (inactive) in the assay on U-251; 3.48 µM (inactive) with KM12; 3.98 µM (inactive) in the assay on M14; 2.52 µM (inactive) in the assay with OVCAR-8; 13.4 µM (inactive) in the assay with SNB-75; 2.61 µM (inactive) with SR. Further, the GI50 with OVCAR-3 was 3.9 µM (inactive); in the assay with HT-29, 4.92 µM (inactive); in the assay on SK-MEL-28, 11.1 µM (inactive); in the assay on NCI-H23, 3.43 µM (inactive); with HOP-92, 26.1 µM (inactive); in the assay with HL-60, 3.73 µM (inactive). Also, the GI50 in the assay on RXF 393 is 3.76 µM (inactive); with T47D, 3.81 µM (inactive); in the assay on SK-MEL-5 it was 2.73 µM (inactive); with DU-145 it was 3.09 µM (inactive); with SK-MEL-2 it was 2.97 µM (inactive); with SW-620, 4.49 µM (inactive).
With `CC(C)(C)OC(=O)NCCNCCNc1ccccc1`, the GI50 in the assay on U-251 was > 100 µM (inactive); with KM12 it was > 100 µM (inactive); with M14, > 100 µM (inactive); in the assay on OVCAR-8, > 100 µM (inactive); in the assay with SNB-75, 58.2 µM (inactive); in the assay with SR, > 100 µM (inactive). In addition, the GI50 with OVCAR-3, in the assay with HT-29, with SK-MEL-28, in the assay on NCI-H23, in the assay on HOP-92 and in the assay on RXF 393 was > 100 µM (inactive) each time. Moreover, the GI50 was 85.5 µM (inactive) in the assay with T47D; > 100 µM (inactive) with NCI-H226; 62.1 µM (inactive) in the assay with SK-MEL-5; 90.8 µM (inactive) in the assay on DU-145; > 100 µM (inactive) with SK-MEL-2; > 100 µM (inactive) in the assay with SW-620.
For the compound `COc1cc(C2SC(=N)Nc3c2c(C)nn3C(=O)Cc2ccccc2)cc(OC)c1OC` (centres undefined), the GI50 was > 100 µM (inactive) with KM12; > 100 µM (inactive) with M14; > 100 µM (inactive) with OVCAR-8; 28.4 µM (inactive) in the assay on SNB-75; > 100 µM (inactive) in the assay on SR; > 100 µM (inactive) with HT-29. Moreover, the GI50 with SK-MEL-28, in the assay on NCI-H23, in the assay on HL-60, with T47D, in the assay on NCI-H226 and with SK-MEL-5 was > 100 µM (inactive) throughout. For the same compound, the GI50 with DU-145, in the assay on A498 and in the assay with SW-620 was > 100 µM (inactive) in each case.
With `Cc1ccc(S(=O)(=O)N/N=C2\C3CC4CC(C3)C2C4)cc1` (centres undefined), the GI50 in the assay with U-251, in the assay on KM12, in the assay with M14, with OVCAR-8, with SNB-75 and in the assay with SR was > 100 µM (inactive) each time. For the same compound, the GI50 in the assay on OVCAR-3, in the assay on HT-29, in the assay on SK-MEL-28, in the assay with NCI-H23, in the assay with HL-60 and in the assay on RXF 393 was > 100 µM (inactive) throughout. In addition, the GI50 was > 100 µM (inactive) in the assay with T47D; > 100 µM (inactive) in the assay on NCI-H226; > 100 µM (inactive) in the assay with SK-MEL-5; > 10 µM (inactive) with DU-145; > 100 µM (inactive) in the assay on SK-MEL-2; > 100 µM (inactive) in the assay on SW-620.
As for `O=C(O)C1C2CCC(O2)C1C(=O)Nc1cccc2cccnc12` (centres undefined), the GI50 with U-251, with KM12, in the assay on M14, in the assay with SNB-75, with SR and in the assay on OVCAR-3 was > 100 µM (inactive) throughout. Besides, the GI50 in the assay on HT-29, in the assay on SK-MEL-28, in the assay on NCI-H23, in the assay on RXF 393, with T47D and in the assay on DU-145 was > 100 µM (inactive) in each case. Besides, the GI50 in the assay on SK-MEL-2, in the assay on A498 and in the assay with SW-620 was > 100 µM (inactive) in each case.
Regarding `NNc1ncnc2cccc(Cl)c12`, the GI50 with U-251, with KM12, in the assay on M14, in the assay on OVCAR-8, with SNB-75 and with SR was > 100 µM (inactive) throughout. Also, the GI50 in the assay with OVCAR-3, with HT-29, in the assay on SK-MEL-28, with NCI-H23, in the assay with HL-60 and in the assay with RXF 393 was > 100 µM (inactive) in each case. The GI50 in the assay on T47D, in the assay on NCI-H226, with SK-MEL-5, in the assay on DU-145, with A498 and with SW-620 was > 100 µM (inactive) in each case.
With `O=C(Oc1cncc(Cl)c1)c1cc2ccccc2sc1=O`, the GI50 in the assay on U-251 was 49.8 µM (inactive); in the assay with KM12 it was 40.9 µM (inactive); in the assay with M14, 33.3 µM (inactive); in the assay with OVCAR-8, > 100 µM (inactive); in the assay on SNB-75, 27.8 µM (inactive); with SR, 19.6 µM (inactive). The GI50 in the assay on OVCAR-3 is 60.5 µM (inactive); in the assay on HT-29, 86.1 µM (inactive); in the assay on SK-MEL-28, 46.5 µM (inactive); in the assay with NCI-H23 it was 58.7 µM (inactive); in the assay on HOP-92 it was 71.4 µM (inactive); in the assay on HL-60, 47.6 µM (inactive). For the same compound, the GI50 was 23 µM (inactive) in the assay on RXF 393; > 100 µM (inactive) with T47D; 22.4 µM (inactive) in the assay on NCI-H226; 31.7 µM (inactive) in the assay on SK-MEL-5; 89.1 µM (inactive) in the assay with DU-145; 24.7 µM (inactive) in the assay with SK-MEL-2. Besides, the GI50 with SW-620 was 35.2 µM (inactive).

Values taken from ChEMBL document CHEMBL1201862, “PubChem BioAssay data set” (2004).
